Experimental data published in ChEMBL document CHEMBL1201862, “PubChem BioAssay data set” (2004).
Calls of active or inactive are those of the source. Cut-off read from the data, not from the text of the source, for most assays here: actives have a measured IC50 and inactives only a lower limit.

Key:
Assay type in all cases: functional
Caspase-3 [1] = molecular target: T1, Caspase-3 (Homo sapiens, UniProt P42574)
T1 sequence (P42574 whole entry): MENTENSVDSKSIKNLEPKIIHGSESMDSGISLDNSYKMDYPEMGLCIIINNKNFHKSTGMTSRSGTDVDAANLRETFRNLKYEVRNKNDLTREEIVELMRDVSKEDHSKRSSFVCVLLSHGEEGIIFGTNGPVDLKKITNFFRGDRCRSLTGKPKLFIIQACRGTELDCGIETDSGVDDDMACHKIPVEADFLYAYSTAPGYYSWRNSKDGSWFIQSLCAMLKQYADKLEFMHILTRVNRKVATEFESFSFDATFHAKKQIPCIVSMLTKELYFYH

Protein RecA = molecular target: T2, Protein RecA (Mycobacterium tuberculosis, UniProt P9WHJ3); assay: Fluorescence Cell-Free Homogeneous Dose Retest to Identify Inhibitors of RecA-Intein Splicing Activity. [Related pubchem assays (depositor defined):AID2097, AID2223, AID489010, AID492950]
T2 sequence (P9WHJ3 whole entry): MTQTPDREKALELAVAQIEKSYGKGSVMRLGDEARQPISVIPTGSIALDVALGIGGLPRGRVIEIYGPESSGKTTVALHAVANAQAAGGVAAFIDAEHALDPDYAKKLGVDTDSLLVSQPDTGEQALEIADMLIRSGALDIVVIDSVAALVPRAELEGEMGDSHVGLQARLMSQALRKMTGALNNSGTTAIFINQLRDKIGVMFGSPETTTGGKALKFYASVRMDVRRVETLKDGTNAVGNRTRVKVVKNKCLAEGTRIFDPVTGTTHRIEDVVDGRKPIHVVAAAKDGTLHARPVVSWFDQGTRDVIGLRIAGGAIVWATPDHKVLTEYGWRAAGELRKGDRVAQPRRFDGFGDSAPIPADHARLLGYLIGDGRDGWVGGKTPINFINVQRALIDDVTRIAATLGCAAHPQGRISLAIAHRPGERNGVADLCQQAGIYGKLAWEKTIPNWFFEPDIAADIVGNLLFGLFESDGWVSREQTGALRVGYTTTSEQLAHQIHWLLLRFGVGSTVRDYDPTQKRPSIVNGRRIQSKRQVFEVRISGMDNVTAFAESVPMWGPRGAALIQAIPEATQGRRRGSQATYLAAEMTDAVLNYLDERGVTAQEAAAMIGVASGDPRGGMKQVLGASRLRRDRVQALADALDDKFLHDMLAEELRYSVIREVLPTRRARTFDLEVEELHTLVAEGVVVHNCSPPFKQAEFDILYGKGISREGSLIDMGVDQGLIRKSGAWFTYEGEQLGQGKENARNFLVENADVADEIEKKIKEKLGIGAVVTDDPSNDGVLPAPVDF

Caspase-3 [2] = molecular target: T1, Caspase-3; assay: SAR Analysis of small molecule inhibitors of Sentrin-specific proteases (SENPs) using a Caspase-3 Selectivity assay. [Related pubchem assays (depositor defined):AID2540, AID2599, AID434973, AID489001]
[3] = molecular target: T3, Sentrin-specific protease 7 (Homo sapiens, UniProt Q9BQF6); assay: SENP7 protease inhibitors, SAR follow-up, biochemical, luminescence (AID 504497)
T3 sequence (Q9BQF6 whole entry): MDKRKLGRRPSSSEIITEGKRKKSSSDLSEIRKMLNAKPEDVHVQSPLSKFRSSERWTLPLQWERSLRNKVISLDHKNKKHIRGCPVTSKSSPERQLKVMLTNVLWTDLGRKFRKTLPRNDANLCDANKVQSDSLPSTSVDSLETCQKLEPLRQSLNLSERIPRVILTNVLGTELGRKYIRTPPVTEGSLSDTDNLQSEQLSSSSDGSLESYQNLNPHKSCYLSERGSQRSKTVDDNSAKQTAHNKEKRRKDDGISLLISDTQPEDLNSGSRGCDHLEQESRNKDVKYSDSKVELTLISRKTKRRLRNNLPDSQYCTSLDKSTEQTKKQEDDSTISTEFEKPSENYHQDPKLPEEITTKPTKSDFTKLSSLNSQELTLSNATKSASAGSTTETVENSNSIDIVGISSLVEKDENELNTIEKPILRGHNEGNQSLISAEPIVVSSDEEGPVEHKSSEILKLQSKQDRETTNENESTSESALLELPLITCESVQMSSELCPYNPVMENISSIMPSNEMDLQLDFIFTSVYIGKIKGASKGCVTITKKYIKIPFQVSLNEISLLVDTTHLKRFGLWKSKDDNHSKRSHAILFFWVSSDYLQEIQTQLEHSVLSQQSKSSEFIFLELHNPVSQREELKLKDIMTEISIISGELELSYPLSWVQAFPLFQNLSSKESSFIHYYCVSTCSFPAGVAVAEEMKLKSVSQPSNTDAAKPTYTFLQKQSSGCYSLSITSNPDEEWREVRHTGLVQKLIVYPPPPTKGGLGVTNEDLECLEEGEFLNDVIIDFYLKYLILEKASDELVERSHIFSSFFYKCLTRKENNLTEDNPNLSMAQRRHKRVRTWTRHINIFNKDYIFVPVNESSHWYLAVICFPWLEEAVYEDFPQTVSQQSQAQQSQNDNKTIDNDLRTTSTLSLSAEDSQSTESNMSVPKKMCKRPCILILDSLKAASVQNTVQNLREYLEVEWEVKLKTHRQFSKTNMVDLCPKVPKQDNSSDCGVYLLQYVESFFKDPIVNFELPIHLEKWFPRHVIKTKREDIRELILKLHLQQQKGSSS

[4] = molecular target: Ras and Rab interactor 1/Tyrosine-protein kinase ABL1 (Homo sapiens, UniProt P00519+Q13671);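 note: biochemical TR-FRET dose-response test measuring inhibition of binding between Rin1 and Abl proteins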
Sequence of Ras and Rab interactor 1/Tyrosine-protein kinase ABL1 (P00519 whole entry): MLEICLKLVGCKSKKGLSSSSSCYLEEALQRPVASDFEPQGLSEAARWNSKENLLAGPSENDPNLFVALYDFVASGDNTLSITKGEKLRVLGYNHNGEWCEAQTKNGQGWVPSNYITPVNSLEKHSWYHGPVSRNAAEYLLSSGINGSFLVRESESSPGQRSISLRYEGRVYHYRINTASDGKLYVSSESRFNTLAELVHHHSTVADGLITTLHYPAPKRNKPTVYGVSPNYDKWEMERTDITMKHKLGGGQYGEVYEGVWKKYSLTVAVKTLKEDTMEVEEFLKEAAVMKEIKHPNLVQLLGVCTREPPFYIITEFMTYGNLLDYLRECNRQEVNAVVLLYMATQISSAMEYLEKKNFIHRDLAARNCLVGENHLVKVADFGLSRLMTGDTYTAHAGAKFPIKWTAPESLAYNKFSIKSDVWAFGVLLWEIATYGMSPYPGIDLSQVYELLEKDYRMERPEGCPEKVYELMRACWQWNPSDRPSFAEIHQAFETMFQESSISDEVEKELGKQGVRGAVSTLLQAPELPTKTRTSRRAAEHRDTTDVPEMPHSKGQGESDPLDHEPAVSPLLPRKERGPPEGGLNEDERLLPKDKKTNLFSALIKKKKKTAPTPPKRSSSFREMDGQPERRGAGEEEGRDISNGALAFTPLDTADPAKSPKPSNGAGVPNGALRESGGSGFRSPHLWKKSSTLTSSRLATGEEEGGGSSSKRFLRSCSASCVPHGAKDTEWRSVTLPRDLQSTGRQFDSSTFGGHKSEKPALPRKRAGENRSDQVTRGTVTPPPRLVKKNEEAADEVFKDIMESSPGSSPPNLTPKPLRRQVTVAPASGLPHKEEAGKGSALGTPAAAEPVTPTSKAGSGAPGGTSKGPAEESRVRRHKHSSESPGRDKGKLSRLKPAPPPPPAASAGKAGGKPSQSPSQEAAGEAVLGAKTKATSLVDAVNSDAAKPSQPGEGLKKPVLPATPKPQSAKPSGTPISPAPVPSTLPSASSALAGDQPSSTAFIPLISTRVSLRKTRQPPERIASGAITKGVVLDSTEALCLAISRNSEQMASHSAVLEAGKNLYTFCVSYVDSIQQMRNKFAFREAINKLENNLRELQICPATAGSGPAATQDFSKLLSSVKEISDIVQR
Sequence of Ras and Rab interactor 1/Tyrosine-protein kinase ABL1 (Q13671 whole entry): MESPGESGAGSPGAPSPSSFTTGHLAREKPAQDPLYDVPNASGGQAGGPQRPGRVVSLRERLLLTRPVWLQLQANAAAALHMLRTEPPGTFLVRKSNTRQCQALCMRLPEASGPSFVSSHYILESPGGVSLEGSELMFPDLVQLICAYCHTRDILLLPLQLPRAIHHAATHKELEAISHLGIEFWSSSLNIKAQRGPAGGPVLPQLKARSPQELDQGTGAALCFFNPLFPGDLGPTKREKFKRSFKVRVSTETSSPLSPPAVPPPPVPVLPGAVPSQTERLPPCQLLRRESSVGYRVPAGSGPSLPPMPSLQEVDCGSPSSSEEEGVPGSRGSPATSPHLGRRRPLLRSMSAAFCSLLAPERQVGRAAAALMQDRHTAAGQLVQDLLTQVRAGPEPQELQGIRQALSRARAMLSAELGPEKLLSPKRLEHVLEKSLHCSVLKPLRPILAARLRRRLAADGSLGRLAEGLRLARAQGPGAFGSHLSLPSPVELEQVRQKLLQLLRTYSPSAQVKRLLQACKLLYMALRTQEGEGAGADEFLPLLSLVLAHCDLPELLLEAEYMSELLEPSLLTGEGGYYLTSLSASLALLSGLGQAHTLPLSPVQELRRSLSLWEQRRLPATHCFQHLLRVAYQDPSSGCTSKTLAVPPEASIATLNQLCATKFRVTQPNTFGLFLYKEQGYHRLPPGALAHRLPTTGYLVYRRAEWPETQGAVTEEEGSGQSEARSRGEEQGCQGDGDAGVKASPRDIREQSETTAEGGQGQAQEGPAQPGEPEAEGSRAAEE

SMILES: O=C(NN=c1c(=O)c2ccccc2c1=O)c1ccccc1
- IC50 (Caspase-3 [1]): > 100 µM (inactive)
- EC50 (Protein RecA): 4.83 µM (active)
- IC50 (Caspase-3 [2]): 51.8 µM (active)
- IC50 [3]: 12 µM (active)
- IC50 [4]: > 73.5 µM (inactive)
